# Results: publication PMC3914206
# Experiments:
# Assay in all cases: KiNativ chemical proteomics profiling in HeLa and PC3 cell lysates
# Format in all cases: binding
# [1] = target: T1, selected panels of kinases in HeLa and PC3 cell lysates (Homo sapiens, UniProt Q9UHD2); details: 10 uM; TBK1; peptide TGDLFAIk[…]; proteome HEL; labeling site Lys1
# T1 construct: endogenous in cells; host or cells: HeLa and PC3 cell lysates
# [2] = target: T2, selected panels of kinases in HeLa and PC3 cell lysates (Homo sapiens, UniProt Q96GD4); details: 10 uM; proteome HEL; peptide SHFIVALkVLFK; labeling site Lys1
# T2 construct: endogenous in cells; host or cells: HeLa and PC3 cell lysates
# [3] = target: T3, selected panels of kinases in HeLa and PC3 cell lysates (Homo sapiens, UniProt Q13233); details: 10 uM; proteome HEL; peptide DVk[…]; labeling site Lys2
# T3 construct: endogenous in cells; host or cells: HeLa and PC3 cell lysates
# [4] = target: T4, selected panels of kinases in HeLa and PC3 cell lysates (Homo sapiens, UniProt Q15375); details: 10 uM; proteome PC3; peptide […]kIPVR; labeling site Activation Loop
# T4 construct: endogenous in cells; host or cells: HeLa and PC3 cell lysates
# T4 sequence (Q15375 28-998): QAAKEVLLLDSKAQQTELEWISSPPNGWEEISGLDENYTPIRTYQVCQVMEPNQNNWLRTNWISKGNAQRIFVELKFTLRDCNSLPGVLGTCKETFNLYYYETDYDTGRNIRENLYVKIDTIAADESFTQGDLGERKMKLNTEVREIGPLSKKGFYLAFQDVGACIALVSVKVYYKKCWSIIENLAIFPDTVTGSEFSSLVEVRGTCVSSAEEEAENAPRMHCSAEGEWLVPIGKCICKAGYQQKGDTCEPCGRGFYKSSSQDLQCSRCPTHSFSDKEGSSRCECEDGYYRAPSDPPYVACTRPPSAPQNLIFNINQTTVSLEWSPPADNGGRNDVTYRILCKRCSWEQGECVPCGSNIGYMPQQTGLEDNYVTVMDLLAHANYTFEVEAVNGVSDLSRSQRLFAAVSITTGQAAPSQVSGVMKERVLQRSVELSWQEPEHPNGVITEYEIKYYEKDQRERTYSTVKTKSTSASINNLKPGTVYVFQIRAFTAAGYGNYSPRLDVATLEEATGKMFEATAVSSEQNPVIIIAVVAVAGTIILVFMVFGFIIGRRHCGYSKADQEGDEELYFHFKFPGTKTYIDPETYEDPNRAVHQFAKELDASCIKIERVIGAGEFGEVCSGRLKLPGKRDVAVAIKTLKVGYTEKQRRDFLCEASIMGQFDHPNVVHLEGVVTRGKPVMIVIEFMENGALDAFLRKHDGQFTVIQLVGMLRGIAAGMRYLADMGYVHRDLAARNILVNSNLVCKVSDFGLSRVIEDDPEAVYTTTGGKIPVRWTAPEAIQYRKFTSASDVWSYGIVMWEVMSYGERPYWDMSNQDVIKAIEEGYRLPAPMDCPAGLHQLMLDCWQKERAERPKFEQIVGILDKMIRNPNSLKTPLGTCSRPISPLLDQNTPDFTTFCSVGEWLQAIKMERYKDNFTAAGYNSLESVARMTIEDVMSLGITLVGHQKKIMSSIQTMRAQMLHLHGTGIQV
# [5] = target: T5, selected panels of kinases in HeLa and PC3 cell lysates (Homo sapiens, UniProt P27361); details: 10 uM, peptide DLk[…], labeling site Lys2
# T5 construct: endogenous in cells; host or cells: HeLa and PC3 cell lysates
# T5 sequence (P27361 whole entry): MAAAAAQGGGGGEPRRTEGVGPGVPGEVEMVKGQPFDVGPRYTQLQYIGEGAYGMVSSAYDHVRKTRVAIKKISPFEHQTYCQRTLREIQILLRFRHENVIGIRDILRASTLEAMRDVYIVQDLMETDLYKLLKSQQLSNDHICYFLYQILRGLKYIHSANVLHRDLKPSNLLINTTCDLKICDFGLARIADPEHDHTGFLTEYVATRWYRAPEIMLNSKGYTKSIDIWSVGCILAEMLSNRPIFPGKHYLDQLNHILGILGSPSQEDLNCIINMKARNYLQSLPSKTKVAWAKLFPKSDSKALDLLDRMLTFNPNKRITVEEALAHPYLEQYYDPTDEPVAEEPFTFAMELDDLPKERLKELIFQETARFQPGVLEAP
# [6] = target: T6, selected panels of kinases in HeLa and PC3 cell lysates (Homo sapiens, UniProt Q92918); details: 10 uM; proteome HEL; peptide […]kMVK; labeling site Lys1
# T6 construct: endogenous in cells; host or cells: HeLa and PC3 cell lysates
# [7] = target: T7, selected panels of kinases in HeLa and PC3 cell lysates (Homo sapiens, UniProt P49841); details: 10 uM; proteome PC3; peptide DIk[…]; labeling site Lys2
# T7 construct: endogenous in cells; host or cells: HeLa and PC3 cell lysates
# [8] = target: T8, selected panels of kinases in HeLa and PC3 cell lysates (Homo sapiens, UniProt Q00536); details: 10 uM; PCTAIRE1; peptide LTDNLVALkEIR; proteome PC3; labeling site Lys1
# T8 construct: endogenous in cells; host or cells: HeLa and PC3 cell lysates
# [9] = target: T9, selected panels of kinases in HeLa and PC3 cell lysates (Homo sapiens, UniProt Q9NWZ3); details: 10 uM, peptide DIk[…], labeling site Lys2
# T9 construct: endogenous in cells; host or cells: HeLa and PC3 cell lysates
# T9 sequence (Q9NWZ3 1-460): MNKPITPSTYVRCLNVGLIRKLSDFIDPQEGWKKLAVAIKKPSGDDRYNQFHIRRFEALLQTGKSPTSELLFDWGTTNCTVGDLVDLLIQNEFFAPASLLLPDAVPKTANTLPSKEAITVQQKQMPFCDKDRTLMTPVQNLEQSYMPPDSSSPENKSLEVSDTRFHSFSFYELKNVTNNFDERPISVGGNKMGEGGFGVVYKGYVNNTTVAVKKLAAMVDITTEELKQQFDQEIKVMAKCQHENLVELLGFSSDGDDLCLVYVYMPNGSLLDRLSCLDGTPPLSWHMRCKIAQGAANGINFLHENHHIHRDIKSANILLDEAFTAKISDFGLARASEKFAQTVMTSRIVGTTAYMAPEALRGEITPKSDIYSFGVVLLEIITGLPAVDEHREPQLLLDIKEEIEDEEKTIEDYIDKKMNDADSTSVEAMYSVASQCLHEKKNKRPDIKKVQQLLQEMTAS
# [10] = target: T10, selected panels of kinases in HeLa and PC3 cell lysates (Homo sapiens, UniProt P21709); details: 10 uM; proteome PC3; peptide […]kIPIR; labeling site Activation Loop
# T10 construct: endogenous in cells; host or cells: HeLa and PC3 cell lysates
# [11] = target: T11, selected panels of kinases in HeLa and PC3 cell lysates (Homo sapiens, UniProt P08581); details: 10 uM, proteome PC3, labeling site Activation Loop
# T11 construct: endogenous in cells; host or cells: HeLa and PC3 cell lysates
# T11 sequence (P08581 25-1390): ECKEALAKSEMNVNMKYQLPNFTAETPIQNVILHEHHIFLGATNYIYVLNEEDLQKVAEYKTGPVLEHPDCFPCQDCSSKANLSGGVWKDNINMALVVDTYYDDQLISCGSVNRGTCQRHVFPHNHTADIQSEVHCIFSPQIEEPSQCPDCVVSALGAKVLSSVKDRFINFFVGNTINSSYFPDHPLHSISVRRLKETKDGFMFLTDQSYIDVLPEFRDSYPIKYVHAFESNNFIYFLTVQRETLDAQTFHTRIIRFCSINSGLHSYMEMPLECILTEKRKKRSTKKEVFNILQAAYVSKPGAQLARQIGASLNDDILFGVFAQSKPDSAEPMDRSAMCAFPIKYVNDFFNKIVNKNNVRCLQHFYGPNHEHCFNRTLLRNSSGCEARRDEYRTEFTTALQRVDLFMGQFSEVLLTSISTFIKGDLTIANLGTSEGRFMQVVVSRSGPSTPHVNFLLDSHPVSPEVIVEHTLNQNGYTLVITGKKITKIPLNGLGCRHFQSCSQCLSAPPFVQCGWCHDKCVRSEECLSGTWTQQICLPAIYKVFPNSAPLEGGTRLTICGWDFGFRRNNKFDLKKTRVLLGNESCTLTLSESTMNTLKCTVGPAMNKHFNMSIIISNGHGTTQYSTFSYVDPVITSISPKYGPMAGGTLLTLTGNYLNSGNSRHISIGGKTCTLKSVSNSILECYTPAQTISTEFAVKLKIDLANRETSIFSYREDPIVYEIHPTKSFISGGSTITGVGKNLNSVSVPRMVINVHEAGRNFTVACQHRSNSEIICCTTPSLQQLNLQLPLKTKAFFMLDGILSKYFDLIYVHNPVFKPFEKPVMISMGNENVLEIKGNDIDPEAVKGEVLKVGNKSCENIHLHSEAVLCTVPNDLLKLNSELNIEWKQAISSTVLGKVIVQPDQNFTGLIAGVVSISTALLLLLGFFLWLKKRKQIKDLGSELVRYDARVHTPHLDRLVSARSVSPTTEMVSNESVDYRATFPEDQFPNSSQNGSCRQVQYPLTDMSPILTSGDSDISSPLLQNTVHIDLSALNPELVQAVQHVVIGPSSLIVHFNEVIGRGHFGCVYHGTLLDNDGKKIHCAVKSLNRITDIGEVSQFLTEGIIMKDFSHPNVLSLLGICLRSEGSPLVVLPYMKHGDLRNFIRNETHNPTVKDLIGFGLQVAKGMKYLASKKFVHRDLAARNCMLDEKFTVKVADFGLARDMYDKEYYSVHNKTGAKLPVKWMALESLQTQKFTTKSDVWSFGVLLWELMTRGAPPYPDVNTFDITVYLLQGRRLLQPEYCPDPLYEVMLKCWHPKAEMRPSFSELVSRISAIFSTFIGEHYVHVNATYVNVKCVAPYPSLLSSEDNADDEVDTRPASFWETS
# [12] = target: T12, selected panels of kinases in HeLa and PC3 cell lysates (Homo sapiens, UniProt Q9NRM7); details: 10 uM; proteome HEL; peptide VDTHALYAMkTLR; labeling site Lys1
# T12 construct: endogenous in cells; host or cells: HeLa and PC3 cell lysates
# [13] = target: T13, selected panels of kinases in HeLa and PC3 cell lysates (Homo sapiens, UniProt Q6PHR2); details: 10 uM; ULK3; peptide EVVAIkCVAK; proteome HEL; labeling site Lys1
# T13 construct: endogenous in cells; host or cells: HeLa and PC3 cell lysates
# [14] = target: T14, selected panels of kinases in HeLa and PC3 cell lysates (Homo sapiens, UniProt P07332); details: 10 uM; proteome HEL; peptide […]kSCR; labeling site Lys1
# T14 construct: endogenous in cells; host or cells: HeLa and PC3 cell lysates
# T14 sequence (P07332 whole entry): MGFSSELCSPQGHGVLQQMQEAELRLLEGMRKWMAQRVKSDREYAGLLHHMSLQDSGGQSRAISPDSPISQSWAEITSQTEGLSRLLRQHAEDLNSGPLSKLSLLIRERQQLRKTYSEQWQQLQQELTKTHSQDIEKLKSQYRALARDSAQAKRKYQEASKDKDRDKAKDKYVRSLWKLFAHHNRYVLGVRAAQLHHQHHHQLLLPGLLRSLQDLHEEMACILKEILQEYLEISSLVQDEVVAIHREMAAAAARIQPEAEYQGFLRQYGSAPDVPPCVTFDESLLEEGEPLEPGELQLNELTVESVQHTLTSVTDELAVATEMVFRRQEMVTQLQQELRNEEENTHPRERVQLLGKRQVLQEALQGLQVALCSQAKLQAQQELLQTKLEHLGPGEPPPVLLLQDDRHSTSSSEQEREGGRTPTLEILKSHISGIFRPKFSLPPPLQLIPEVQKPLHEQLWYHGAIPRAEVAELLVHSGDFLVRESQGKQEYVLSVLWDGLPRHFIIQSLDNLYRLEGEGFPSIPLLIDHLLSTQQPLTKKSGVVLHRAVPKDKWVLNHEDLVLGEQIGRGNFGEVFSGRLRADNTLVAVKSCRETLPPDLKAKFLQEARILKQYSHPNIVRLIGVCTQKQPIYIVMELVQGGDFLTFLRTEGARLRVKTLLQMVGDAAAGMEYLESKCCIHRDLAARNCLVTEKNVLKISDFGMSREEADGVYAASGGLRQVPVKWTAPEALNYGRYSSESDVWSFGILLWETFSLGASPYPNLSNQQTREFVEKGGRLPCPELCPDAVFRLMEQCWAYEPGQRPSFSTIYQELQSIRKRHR
# [15] = target: T15, selected panels of kinases in HeLa and PC3 cell lysates (Homo sapiens, UniProt Q9Y616); details: 10 uM; proteome HEL; peptide […]k[…]; labeling site Protein Kinase Domain
# T15 construct: endogenous in cells; host or cells: HeLa and PC3 cell lysates
# [16] = target: T16, selected panels of kinases in HeLa and PC3 cell lysates (Homo sapiens, UniProt Q07912); details: 10 uM; proteome HEL; peptide TVSVAVk[…]; labeling site Lys1
# T16 construct: endogenous in cells; host or cells: HeLa and PC3 cell lysates
# T16 sequence (Q07912 whole entry): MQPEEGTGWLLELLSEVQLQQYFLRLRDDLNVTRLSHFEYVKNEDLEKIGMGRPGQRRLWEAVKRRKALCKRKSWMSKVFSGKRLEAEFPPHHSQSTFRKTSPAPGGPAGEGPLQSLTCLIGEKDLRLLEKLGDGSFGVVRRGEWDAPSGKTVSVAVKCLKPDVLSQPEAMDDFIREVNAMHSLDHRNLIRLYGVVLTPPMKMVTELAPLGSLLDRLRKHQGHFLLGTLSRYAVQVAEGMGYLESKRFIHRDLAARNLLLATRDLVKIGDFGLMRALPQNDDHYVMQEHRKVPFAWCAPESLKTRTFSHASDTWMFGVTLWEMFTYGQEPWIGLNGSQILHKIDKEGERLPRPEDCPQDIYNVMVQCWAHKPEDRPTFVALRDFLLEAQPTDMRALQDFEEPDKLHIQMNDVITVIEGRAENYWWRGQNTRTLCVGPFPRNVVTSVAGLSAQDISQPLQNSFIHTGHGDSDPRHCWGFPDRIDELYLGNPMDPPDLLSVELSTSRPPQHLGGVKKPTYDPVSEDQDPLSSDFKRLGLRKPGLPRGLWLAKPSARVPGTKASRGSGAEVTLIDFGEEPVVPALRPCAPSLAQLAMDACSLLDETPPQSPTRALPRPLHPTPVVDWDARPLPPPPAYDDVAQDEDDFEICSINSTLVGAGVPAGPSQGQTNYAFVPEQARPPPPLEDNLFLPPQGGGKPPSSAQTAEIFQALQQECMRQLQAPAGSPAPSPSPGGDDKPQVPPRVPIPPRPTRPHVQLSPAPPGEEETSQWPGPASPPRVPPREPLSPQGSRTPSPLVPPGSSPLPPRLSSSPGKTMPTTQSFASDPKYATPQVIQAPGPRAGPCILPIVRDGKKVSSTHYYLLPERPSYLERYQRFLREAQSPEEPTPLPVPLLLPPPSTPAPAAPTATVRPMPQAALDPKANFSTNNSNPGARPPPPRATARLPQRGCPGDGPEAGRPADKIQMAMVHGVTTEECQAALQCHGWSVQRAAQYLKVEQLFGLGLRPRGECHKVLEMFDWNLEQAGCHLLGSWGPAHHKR
# [17] = target: T17, selected panels of kinases in HeLa and PC3 cell lysates (Homo sapiens, UniProt Q9Y6E0); details: 10 uM; proteome HEL; peptide DIk[…]; labeling site Lys2
# T17 construct: endogenous in cells; host or cells: HeLa and PC3 cell lysates
# T17 sequence (Q9Y6E0 whole entry): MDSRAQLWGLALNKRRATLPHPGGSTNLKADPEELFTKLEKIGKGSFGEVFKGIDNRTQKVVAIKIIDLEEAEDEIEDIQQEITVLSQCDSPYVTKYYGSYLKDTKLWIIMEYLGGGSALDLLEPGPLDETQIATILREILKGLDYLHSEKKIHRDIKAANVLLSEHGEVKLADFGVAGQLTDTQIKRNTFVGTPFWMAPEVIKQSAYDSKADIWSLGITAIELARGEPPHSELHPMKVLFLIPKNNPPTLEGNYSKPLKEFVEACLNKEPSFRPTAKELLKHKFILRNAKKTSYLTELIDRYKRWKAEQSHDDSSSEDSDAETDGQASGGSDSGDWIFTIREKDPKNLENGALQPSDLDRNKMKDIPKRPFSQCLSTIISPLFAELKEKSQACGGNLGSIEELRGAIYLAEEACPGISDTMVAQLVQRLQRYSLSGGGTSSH
# [18] = target: T18, selected panels of kinases in HeLa and PC3 cell lysates (Homo sapiens, UniProt Q15831); details: 10 uM, peptide DIk[…], labeling site Lys2
# T18 construct: endogenous in cells; host or cells: HeLa and PC3 cell lysates
# T18 sequence (Q15831 1-433): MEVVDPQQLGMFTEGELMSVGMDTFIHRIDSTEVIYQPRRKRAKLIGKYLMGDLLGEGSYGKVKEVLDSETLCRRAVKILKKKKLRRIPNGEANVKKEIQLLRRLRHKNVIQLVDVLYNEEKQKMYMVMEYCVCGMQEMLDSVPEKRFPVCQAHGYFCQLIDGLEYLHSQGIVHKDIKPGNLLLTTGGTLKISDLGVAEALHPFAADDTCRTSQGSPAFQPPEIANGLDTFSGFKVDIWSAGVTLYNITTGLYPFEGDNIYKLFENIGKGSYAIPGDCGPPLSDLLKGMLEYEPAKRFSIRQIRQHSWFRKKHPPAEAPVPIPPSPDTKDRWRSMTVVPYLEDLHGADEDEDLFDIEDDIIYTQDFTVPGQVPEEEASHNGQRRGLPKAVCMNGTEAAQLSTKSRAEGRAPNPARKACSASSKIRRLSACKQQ
# [19] = target: T19, selected panels of kinases in HeLa and PC3 cell lysates (Homo sapiens, UniProt O75385); details: 10 uM; ULK1; peptide DLk[…]; proteome HEL; labeling site Lys2
# T19 construct: endogenous in cells; host or cells: HeLa and PC3 cell lysates
SMILES,% Inhibition TBK1 [1] [%],"% Inhibiton, AurB [2] [%]","% Inhibiton, MAP3K1 [3] [%]","% Inhibiton, EphA7 [4] [%]","% Inhibiton, Erk1 ([5]; proteome HEL) [%]","% Inhibiton, Erk1 ([5]; proteome PC3) [%]","% Inhibiton, HPK1 [6] [%]","% Inhibiton, GSK3B [7] [%]",% Inhibition PCTAIRE1 [8] [%],"% Inhibiton, IRAK4 ([9]; proteome HEL) [%]","% Inhibiton, IRAK4 ([9]; proteome PC3) [%]","% Inhibiton, EphA1 [10] [%]","% Inhibiton, MET ([11]; peptide DMYDkEYYSVHNK) [%]","% Inhibiton, MET ([11]; peptide […]kTGAK) [%]","% Inhibiton, LATS2 [12] [%]",% Inhibition ULK3 [13] [%],"% Inhibiton, FES [14] [%]","% Inhibiton, IRAK3 [15] [%]","% Inhibiton, ACK [16] [%]","% Inhibiton, MST3 [17] [%]",further results
"COc1cc(C(=O)N2CCC(N3CCN(C)CC3)CC2)ccc1Nc1ncc2c(n1)N(C1CCCC1)c1ccccc1C(=O)N2C [Compound 25, 11-cyclopentyl-2-((2-methoxy-4-(4-(4-methylpiperazin-1-yl)piperidine-1-carbonyl)phenyl)amino)-5-methyl-5H-benzo[e]pyrimido[5,4-b][1,4]diazepin-6(11H)-one]",-96.8,65.8,36.1,-3.8,20.3,8.4,-8.3,4.6,-25.8,13.4,-7.4,-1.8,-15.9,4.8,-4.2,-3.7,6.0,40.5,43.5,7.3,"% Inhibiton, LKB1 ([18]; proteome HEL): -0.266%; % Inhibiton, LKB1 ([18]; proteome PC3): -4.1%; % Inhibition ULK1 [19]: 6.4%"
CCOc1cc(C(=O)N2CCC(N3CCN(C)CC3)CC2)ccc1Nc1ncc2c(n1)N(C1CCCC1)c1ccccc1C(=O)N2C [Compound 26],~57.6,42.5,2.2,8.5,-1.3,-0.2,-10.9,-3,-26.9,-2.3,1.4,-0.1,-12.7,9.2,3.2,2.5,4.1,37,20.1,9.7,"% Inhibiton, LKB1 ([18]; proteome HEL): 6.4%; % Inhibiton, LKB1 ([18]; proteome PC3): -0.8%; % Inhibition ULK1 [19]: -5.1%"
